Source: patent US20040209915A1, “Library of biphenyl derivatives” (priority 2003, published 2004)

How the values were obtained:
M3 muscarinic receptor = target: T1, M3 muscarinic receptor (Homo sapiens, UniProt P20309); experiment: Radioligand binding assay for muscarinic receptors; conditions: displacement of [3H]-NMS, CHO cell membranes
T1 construct: expressed in transfected cells
Method: CHO cell lines stably expressing cloned human hM1, hM2, hM3 and hM4 muscarinic receptor subtypes, respectively, were grown to near confluency in HAM's F-12 media supplemented with 10% FBS and 250 μg/mL Geneticin. The cells were grown in a 5% CO2, 37° C. incubator and lifted with 2 mM EDTA in dPBS. […] For membrane preparation, cell pellets were resuspended in lysis buffer and homogenized with a Polytron PT-2100 tissue disrupter (Kinematica AG; 20 seconds×2 bursts). Crude membranes were centrifuged at 40,000×g for 15 minutes at 4° C. The membrane pellet was then resuspended with resuspension buffer and homogenized again with the Polytron tissue disrupter.

[1] = target: T2, human β2 adrenergic receptor (Homo sapiens, UniProt P07550); experiment: Whole-cell cAMP Flashplate assay with lung epithelial cell line (BEAS-2B) endogenously expressing human β2 adrenergic receptor; type: cell-based; conditions: BEAS-2B cells
T2 construct: expressed in transfected cells

[2] = target: T2, human β2 adrenergic receptor; experiment: Whole-cell cAMP Flashplate assay in CHO cell lines heterologously expressing human β2 adrenergic receptor; type: cell-based; conditions: CHO-K1 cells
Method: Cells were rinsed with PBS and detached in dPBS (Dulbecco's Phosphate Buffered Saline, without CaCl2 and MgCl2) containing 2 mM EDTA or Trypsin-EDTA solution (0.05% trypsin/0.53 mM EDTA). […] About 60,000 to 80,000 cells per well were used in this assay. Test compounds (10 mM in DMSO) were diluted into PBS containing 0.1% BSA in Beckman Biomek-2000 and tested at 11 different concentrations ranging from 100 μM to 1 pM.

[3] = target: T2, human β2 adrenergic receptor; experiment: Radioligand binding assay for human β2 adrenergic receptor; conditions: displacement of [3H]-dihydroalprenolol, CHO cell membranes

T2 sequence (P07550 whole entry): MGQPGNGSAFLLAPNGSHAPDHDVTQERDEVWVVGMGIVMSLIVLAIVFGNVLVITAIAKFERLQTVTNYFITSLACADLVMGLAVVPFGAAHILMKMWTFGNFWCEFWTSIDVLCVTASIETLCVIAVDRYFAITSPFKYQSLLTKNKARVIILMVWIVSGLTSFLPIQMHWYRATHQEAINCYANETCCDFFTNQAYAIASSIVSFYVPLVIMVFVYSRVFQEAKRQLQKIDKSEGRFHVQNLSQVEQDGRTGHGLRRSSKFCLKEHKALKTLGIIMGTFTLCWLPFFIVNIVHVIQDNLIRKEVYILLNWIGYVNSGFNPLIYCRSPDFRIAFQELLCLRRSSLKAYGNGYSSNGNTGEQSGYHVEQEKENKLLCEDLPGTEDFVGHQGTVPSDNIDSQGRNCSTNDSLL
T1 sequence (P20309 whole entry): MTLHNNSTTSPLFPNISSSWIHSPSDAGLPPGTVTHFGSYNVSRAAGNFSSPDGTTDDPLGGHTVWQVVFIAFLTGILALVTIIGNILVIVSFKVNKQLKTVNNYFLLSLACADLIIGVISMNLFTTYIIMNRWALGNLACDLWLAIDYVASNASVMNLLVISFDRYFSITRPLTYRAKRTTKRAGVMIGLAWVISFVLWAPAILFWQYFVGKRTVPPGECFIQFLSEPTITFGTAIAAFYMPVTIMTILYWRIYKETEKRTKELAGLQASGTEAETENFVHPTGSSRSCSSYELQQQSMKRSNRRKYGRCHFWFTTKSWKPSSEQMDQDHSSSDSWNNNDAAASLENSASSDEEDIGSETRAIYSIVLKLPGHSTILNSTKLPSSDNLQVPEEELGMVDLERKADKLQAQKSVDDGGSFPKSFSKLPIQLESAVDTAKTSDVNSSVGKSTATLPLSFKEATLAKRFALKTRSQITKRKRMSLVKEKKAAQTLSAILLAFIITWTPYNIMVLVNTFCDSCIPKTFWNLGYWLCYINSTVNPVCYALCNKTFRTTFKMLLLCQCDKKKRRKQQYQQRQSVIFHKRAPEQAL

O=C(CCN1CCC(OC(=O)Nc2ccccc2-c2ccccc2)CC1)NCCCCCNC[C@H](O)c1ccc(O)c2[nH]c(=O)ccc12 [Example 6, Biphenyl-2-ylcarbamic Acid 1-(2-{5-[(R)-2-Hydroxy-2-(8-hydroxy-2-oxo-1,2-dihydroquinolin-5-yl)ethylamino]pentylcarbamoyl}ethyl)piperidin-4-yl Ester, Ditrifluoroacetate]
< 10 nM: Ki (M3 muscarinic receptor) | EC50 [1] | EC50 [2] | Ki [3]
